Measurements from article PMC4019573, “Characterization of Protein Phosphatase 5 from Three Lepidopteran Insects: Helicoverpa armigera, Mythimna separata and Plutella xylostella” (PLoS ONE, 2014).

Columns and labels:
[1] = system: total crude protein phosphatases; assay: Arachidonic acid stimulation of crude PPP extracts, phosphopeptides as substrate; assay type: biochemical, H. armigera, M. separata and P. xylostella; details: larvae extracts of three insects
Experimental: (§1) One gram of 4th instar larvae of each insects were ground into a homogeneous state in ice-cold 20 mM Tris (pH = 7.5), 0.1% β-mercaptoethanol, 1 mM EDTA, 1 mM benzamidine and 1 mM (PMSF). This was then centrifuged at 12,000 g for 30 min at 4°C. The supernatant extract was desalted using Sephadex G-25 spin columns (GE Healthcare, Boston, MA, USA) to remove the contaminating free phosphate as described in the instruction manual. Each insect extract contained three biological replicates. Protein concentration was estimated using the method of Bradford.
(§2) Phosphatases activity of crude extract was determined towards phosphopeptides using PPP assay kit (Promega, Madison, WI, USA) in half-area 96-well plates (Corning, NY, USA) following the manual instruction. In brief, 1.0 µg protein was mixed in assay buffer of 50 mM imidazole (pH 7.2), 0.2 mM EGTA, 0.02% β-mercaptoethanol, 0.1 mg ml^−1 BSA, and pre-warmed to 30°C. Reaction was initiated after adding 100 µM phosphopeptides, RRA(pT)VA to obtain a final volume of 50 µL and incubated at 30°C for 15 min. The reaction was stopped by adding 50 µL of molybdate dye/additive mixture and incubated for an additional 15 min at room temperature for color development. Control samples were determined without enzyme.

[2] = system: E. coli expressed PP5 from T. brucei; set-up: method as in PMID 11290414; details: cited from earlier work
recombinant MsPP5 [3] = molecular target: T1, recombinant MsPP5 (Mythimna separata, UniProt A0A059TAW5); assay: Arachidonic acid stimulation assay and kinetics of recombinant MsPP5, pNPP as substrate; assay type: biochemical
T1 sequence (A0A059TAW5 1-490): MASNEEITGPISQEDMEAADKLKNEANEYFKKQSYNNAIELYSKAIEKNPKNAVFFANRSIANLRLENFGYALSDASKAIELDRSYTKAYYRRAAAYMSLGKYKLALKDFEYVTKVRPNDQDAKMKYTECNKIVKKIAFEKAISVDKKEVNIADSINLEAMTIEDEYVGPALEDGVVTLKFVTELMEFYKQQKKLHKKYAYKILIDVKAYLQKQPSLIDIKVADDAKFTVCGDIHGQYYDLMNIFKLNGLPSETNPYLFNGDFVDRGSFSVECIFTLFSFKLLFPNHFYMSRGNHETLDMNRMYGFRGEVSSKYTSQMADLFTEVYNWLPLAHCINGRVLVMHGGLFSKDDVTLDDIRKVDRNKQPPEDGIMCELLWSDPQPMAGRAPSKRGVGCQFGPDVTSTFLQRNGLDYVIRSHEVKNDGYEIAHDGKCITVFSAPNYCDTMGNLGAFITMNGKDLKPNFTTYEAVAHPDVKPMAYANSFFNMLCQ
Description: (§3) Non-enzyme samples were taken as controls.

recombinant PxPP5 [4] = molecular target: T2, recombinant PxPP5 (Plutella xylostella, UniProt W0FSW2); assay: Arachidonic acid stimulation assay and kinetics of recombinant PxPP5, pNPP as substrate; assay type: biochemical
T2 sequence (W0FSW2 1-491): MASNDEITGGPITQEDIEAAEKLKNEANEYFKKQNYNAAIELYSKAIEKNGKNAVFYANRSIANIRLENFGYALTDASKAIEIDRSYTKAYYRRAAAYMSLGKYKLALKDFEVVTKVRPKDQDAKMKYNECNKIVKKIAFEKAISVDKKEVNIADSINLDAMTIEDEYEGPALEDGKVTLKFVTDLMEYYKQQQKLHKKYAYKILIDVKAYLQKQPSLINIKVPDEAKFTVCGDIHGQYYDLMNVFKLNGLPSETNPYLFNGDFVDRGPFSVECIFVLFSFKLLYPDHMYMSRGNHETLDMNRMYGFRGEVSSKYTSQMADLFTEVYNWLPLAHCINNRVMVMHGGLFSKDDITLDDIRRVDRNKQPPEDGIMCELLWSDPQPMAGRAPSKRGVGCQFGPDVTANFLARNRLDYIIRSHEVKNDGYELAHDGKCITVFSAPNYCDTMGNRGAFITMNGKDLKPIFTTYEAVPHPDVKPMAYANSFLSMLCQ
Description: as §3

recombinant HaPP5 [5] = molecular target: T3, recombinant HaPP5 (Helicoverpa armigera, UniProt A0A059TAS5); assay: Arachidonic acid stimulation assay and kinetics of recombinant HaPP5, pNPP as substrate; assay type: biochemical
T3 sequence (A0A059TAS5 1-490): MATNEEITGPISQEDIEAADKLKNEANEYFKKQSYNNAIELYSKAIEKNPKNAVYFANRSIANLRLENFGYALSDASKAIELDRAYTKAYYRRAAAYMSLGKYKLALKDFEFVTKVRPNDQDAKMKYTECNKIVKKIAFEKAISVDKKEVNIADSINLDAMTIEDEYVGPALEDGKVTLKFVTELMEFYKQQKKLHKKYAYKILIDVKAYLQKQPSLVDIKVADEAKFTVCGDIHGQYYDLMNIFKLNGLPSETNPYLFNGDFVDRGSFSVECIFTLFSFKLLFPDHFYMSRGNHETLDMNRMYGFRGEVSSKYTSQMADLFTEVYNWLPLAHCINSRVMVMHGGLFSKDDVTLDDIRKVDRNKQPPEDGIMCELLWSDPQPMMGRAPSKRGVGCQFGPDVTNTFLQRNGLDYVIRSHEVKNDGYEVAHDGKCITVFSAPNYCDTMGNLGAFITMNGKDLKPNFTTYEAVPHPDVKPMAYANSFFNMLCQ
Description: as §3

[6] = system: E. coli expressed PP5 from E. chinensis; set-up: method as in PMID 24351830; details: cited from earlier work
[7] = system: E. coli expressed PP5 from P. falciparum; set-up: method as in PMID 11897131; details: cited from earlier work
recombinant MsPP5 [8] = molecular target: T1, recombinant MsPP5; assay: Inhibition assay of recombinant MsPP5 phosphatase activity, pNPP as substrate; assay type: biochemical
Experimental: as §3
(§4) Three candidate inhibitors were dissolved in dimethyl sulphoxide (DMSO) to provide stock solutions of 10 mM for okadaic acid, 100 mM for cantharidin, and 200 mM for endothall, respectively. All solutions were diluted to the desired concentrations with assay buffer before use. Assays were carried out using pNPP as substrate for purified proteins or using RRA(pT)VA as substrate for crude PPP extract. Before initiating the reaction, the enzyme was incubated with the chemicals for 5 min at room temperature. A dose-response assay was used to determine the IC50 values. The non-enzyme reaction was taken as the background control, while the non-inhibitor reaction was used as the full-activity control.

recombinant HaPP5 [9] = molecular target: T3, recombinant HaPP5; assay: Inhibition assay of recombinant HaPP5 phosphatase activity, pNPP as substrate; assay type: biochemical
Experimental: as §3, §4

recombinant PxPP5 [10] = molecular target: T2, recombinant PxPP5; assay: Inhibition assay of recombinant PxPP5 phosphatase activity, pNPP as substrate; assay type: biochemical
Experimental: as §3, §4

crude PPP extracts = assay: Inhibition of phosphatase activity of crude PPP extracts, phosphopeptide RRA(pT)VA as substrate; assay type: biochemical, H. armigera, M. separata and P. xylostella; details: treated with 1.0 µM inhibitor, range over three insect extracts
Experimental: as §1, §2, §4

[11] = system: three lepidopteran PP5 proteins; assay: Inhibition of the three recombinant lepidopteran PP5 proteins (stated jointly), pNPP as substrate; assay type: biochemical, H. armigera, M. separata and P. xylostella; details: range over HaPP5, MsPP5 and PxPP5
Experimental: as §3, §4

E. chinensis PP5 = system: E. chinensis PP5; set-up: method as in PMID 24351830; details: cited from earlier work
[12] = substrate: O=[N+]([O-])c1ccc(OP(=O)(O)O)cc1; assay: purified protein, by the assay type; details: pH 7.5; 30.0 °C
[13] = 0.25 h, up to, dose dependent, maximum activation at 150 µM
[14] = addition of 150 µM arachidonic acid
[15] = up to, dose dependent, maximum activation at 150 µM, 15 min, 150 µM

For `CCCCC/C=C\C/C=C\C/C=C\C/C=C\CCCC(=O)O` [arachidonic acid], the “Stimulation of phosphatase activity of total crude extracts” value [1] is given as “no significant stimulation”, the “Maximum activation of E. coli expressed PP5 from T. brucei” value [2] is given as 2.6 fold and the maximal fold induction at 150 µM (recombinant MsPP5 [3]; [13]) is given as roughly 2. The “Elevation of Vmax value of MsPP5” value (recombinant MsPP5 [3]; [14]) was 1.54 fold, the “Reduction of Km value of MsPP5” value (recombinant MsPP5 [3]; [14]) was 1.86 fold and the “Stimulation of activity of recombinant MsPP5” value (recombinant MsPP5 [3]; [15]) was no more than 1.99 fold. The maximal fold induction at 150 µM (recombinant PxPP5 [4]; [13]) was roughly 2, the “Elevation of Vmax value of PxPP5” value (recombinant PxPP5 [4]; [14]) was 1.26 fold and the “Reduction of Km value of PxPP5” value (recombinant PxPP5 [4]; [14]) was 2.16 fold. The “Stimulation of activity of recombinant PxPP5” value (recombinant PxPP5 [4]; [15]) was no more than 1.81 fold, the maximal fold induction at 150 µM (recombinant HaPP5 [5]; [13]) was roughly 2 and the “Elevation of Vmax value of HaPP5” value (recombinant HaPP5 [5]; [14]) was 1.33 fold. For the same molecule, the “Reduction of Km value of HaPP5” value (recombinant HaPP5 [5]; [14]) was 2.07 fold, the “Stimulation of activity of recombinant HaPP5” value (recombinant HaPP5 [5]; [15]) was “up to 1.78 fold” and the “Maximum activation of E. coli expressed PP5 from E. chinensis” value [6] was 2.3 fold. The “Maximum activation of E. coli expressed PP5 from P. falciparum” value [7] was 2.0 fold.

`C[C@@]12C(=O)OC(=O)[C@]1(C)[C@H]1CC[C@@H]2O1` [cantharidin] showed an IC50 (recombinant MsPP5 [8]) of 2380 ± 480 nM, an IC50 (recombinant HaPP5 [9]) of 1280 ± 310 nM and an IC50 (recombinant PxPP5 [10]) of 730 ± 270 nM. The “Residual phosphatase activities of the three crude extracts” value (“Residual phosphatase activities” for short) (crude PPP extracts) was 57.65–61.23% and the IC50 [11] was 730 to 2380 nM.

For `O=C(O)[C@@H]1[C@H](C(=O)O)[C@H]2CC[C@@H]1O2` [endothall], the IC50 (recombinant MsPP5 [8]) was 12600 ± 1620 nM, the IC50 (recombinant HaPP5 [9]) was 19300 ± 2340 nM and the IC50 (recombinant PxPP5 [10]) was 6840 ± 470 nM. For the same molecule, the “Residual phosphatase activities” value (crude PPP extracts) was 83.77–87.66%.

In the case of `C=C1[C@@H](O)[C@@H]2O[C@]3(CC[C@H](/C=C/[C@@H](C)[C@@H]4CC(C)=C[C@@]5(O[C@H](C[C@@](C)(O)C(=O)O)CC[C@H]5O)O4)O3)CC[C@H]2O[C@@H]1[C@@H](O)C[C@H](C)[C@H]1O[C@@]2(CCCCO2)CC[C@H]1C` [okadaic acid], the IC50 (E. chinensis PP5) is listed as 190 nM, the IC50 (recombinant MsPP5 [8]) is listed as 17.6 ± 3.2 nM and the IC50 (recombinant HaPP5 [9]) is listed as 41.8 ± 3.31 nM. The IC50 (recombinant PxPP5 [10]) was 25 ± 1.64 nM and the “Residual phosphatase activities” value (crude PPP extracts) was 16.37–18.89%.

B1: HaPP5 (Helicoverpa armigera) (protein)
chain: T3 sequence (A0A059TAS5 1-490)
Molecule B1 has a Km [12] of 8.64 ± 0.95 mM.

B2: MsPP5 (Mythimna separata) (protein)
chain: T1 sequence (A0A059TAW5 1-490)
With B2 the Km [12] was 9.01 ± 0.51 mM.

B3: PxPP5 (Plutella xylostella) (protein)
chain: T2 sequence (W0FSW2 1-491)
B3 showed a Km [12] of 8.83 ± 0.75 mM.
